The NIST ThermoML archive (doi:10.1016/j.jct.2019.02.025)
± gives the expanded uncertainty stated by the source.

Legend:
[1] = for mass density / kinematic viscosity: 101.33 kPa, Liquid; for mass density: Vibrating tube method; for surface tension liquid-gas / kinematic viscosity: Surface laser light scattering (SLLS)
[2] = refractive index (Na D-line) (dimensionless); conditions: 101.33 kPa, Liquid, Standard Abbe refractometry

## CCCCCCCC(=O)OCC [ethyl octanoate]
[1]; 293.15 K
  mass density: 866.99 ± 1.7 kg/m3
[1]; 298.15 K
  surface tension liquid-gas: 25.38 ± 0.57 mN/m
  kinematic viscosity: 1.52e-06 ± 5.7e-08 m2/s
[1]; 303.15 K
  mass density: 858.27 ± 1.7 kg/m3
[1]; 313.15 K
  mass density: 849.55 ± 1.7 kg/m3
[1]; 323.14 K
  surface tension liquid-gas: 23.34 ± 0.48 mN/m
  kinematic viscosity: 1.15e-06 ± 7.1e-08 m2/s
[1]; 323.15 K
  mass density: 839.92 ± 1.7 kg/m3
[1]; 333.15 K
  mass density: 832 ± 1.7 kg/m3
[1]; 343.15 K
  mass density: 823.46 ± 1.7 kg/m3
[1]; 348.17 K
  surface tension liquid-gas: 21.5 ± 0.32 mN/m
  kinematic viscosity: 8.92e-07 ± 3.8e-08 m2/s
[1]; 353.15 K
  mass density: 814.74 ± 1.6 kg/m3
[1]; 363.15 K
  mass density: 805.97 ± 1.6 kg/m3
[1]; 373.15 K
  mass density: 797.16 ± 1.6 kg/m3
[1]; 373.19 K
  surface tension liquid-gas: 19.5 ± 0.33 mN/m
  kinematic viscosity: 6.88e-07 ± 2.6e-08 m2/s
[1]; 383.15 K
  mass density: 788.08 ± 1.6 kg/m3
[1]; 393.15 K
  mass density: 779.34 ± 1.6 kg/m3
[1]; 398.2 K
  surface tension liquid-gas: 17.44 ± 0.11 mN/m
  kinematic viscosity: 5.45e-07 ± 2.2e-08 m2/s
[1]; 403.15 K
  mass density: 770.31 ± 1.6 kg/m3
[1]; 413.15 K
  mass density: 761.18 ± 1.5 kg/m3
[1]; 423.15 K
  mass density: 751.94 ± 1.5 kg/m3
[1]; 423.18 K
  surface tension liquid-gas: 15.36 ± 0.12 mN/m
  kinematic viscosity: 4.53e-07 ± 1.8e-08 m2/s
[1]; 433.15 K
  mass density: 742.64 ± 1.5 kg/m3
[1]; 443.15 K
  mass density: 733.17 ± 1.5 kg/m3
[1]; 448.17 K
  surface tension liquid-gas: 13.16 ± 0.17 mN/m
  kinematic viscosity: 3.86e-07 ± 1.7e-08 m2/s
[1]; 453.15 K
  mass density: 723.58 ± 1.5 kg/m3
[2]; 278.15 K
  refractive index: 1.42461 ± 0.00052
[2]; 283.15 K
  refractive index: 1.42242 ± 0.00052
[2]; 288.15 K
  refractive index: 1.42025 ± 0.00052
[2]; 293.15 K
  refractive index: 1.41807 ± 0.00052
[2]; 298.15 K
  refractive index: 1.41587 ± 0.00052
[2]; 303.15 K
  refractive index: 1.41367 ± 0.00052
[2]; 308.15 K
  refractive index: 1.41148 ± 0.00052
[2]; 313.15 K
  refractive index: 1.40926 ± 0.00052
[2]; 318.15 K
  refractive index: 1.40703 ± 0.00052
[2]; 323.15 K
  refractive index: 1.40481 ± 0.00052
[2]; 328.15 K
  refractive index: 1.40261 ± 0.00052
[2]; 333.15 K
  refractive index: 1.40042 ± 0.00052
[2]; 338.15 K
  refractive index: 1.39823 ± 0.00052
[2]; 343.15 K
  refractive index: 1.39603 ± 0.00052
[2]; 348.15 K
  refractive index: 1.39386 ± 0.00052
[2]; 353.15 K
  refractive index: 1.3917 ± 0.00052
[2]; 358.15 K
  refractive index: 1.38955 ± 0.00052
